Values of other authors as cited in patent US8629099B2, “Ophthalmic compositions comprising a dipeptide” (Bausch & Lomb Incorporated, priority 2008, dated 2014).

Conditions: lower pKa given in text

- pKa values (first value): 2.4
Compound: NCC(=O)O [glycine]
